Our source for the XC50 values is ChEMBL document CHEMBL1157539, “Thousands of chemical starting points for antimalarial lead identification” (Nature, 2010).

In the experiment the test system is Plasmodium falciparum. Nature of the experiment: GSK_TCMDC: Inhibition of Plasmodium falciparum 3D7 in whole erythrocytes, using parasite LDH activity as an index of growth. The class given is functional, organism-based. Particulars: Plasmodium falciparum, 3D7.
Consider `COc1cccc2c(N/N=C/c3ccccc3[N+](=O)[O-])ccnc12`, for which the XC50 turned out to be 588 nM.
Molecule `N=C(Nc1nc(-c2ccccn2)cc2ccccc12)c1cccc(Cl)c1` had an XC50 of 309 nM.
In turn, `Cc1cc2c3c(N)nc(N)nc3ccc2n1C` gave an XC50 of 90.1 nM.
Take `Cc1ccc(C2=NNC3(S2)C(=O)N(C)c2ccccc23)cc1` (stereo not given): the XC50 was 1020 nM.
On to `COc1ccc(C2C(C(=O)Nc3ccc(C)c(F)c3)c3cc(OC)c(OC)cc3C(=O)N2C)cc1` (stereo not given), for which the XC50 came to 956 nM.
To `C[C@H](Cc1ccc(C[C@@H](C)NC[C@H](O)c2cccc(Cl)c2)cc1)NC[C@H](O)COc1ccccc1` belongs 1170 nM; to `CC(NCCc1cccc(Cl)c1)C(O)c1ccc(OCCCCCCOc2ccc(C(O)C(C)NCCc3cccc(Cl)c3)cc2)cc1` (stereo not given), 399 nM.
To `Cc1cc2ncc(C(N)=O)c(Nc3ccc(N4CCOCC4)cc3)c2cc1S(C)(=O)=O` belongs 675 nM; to `Cc1c(C)c2c(c(C)c1O)CCC(C)(CCC(=O)O)O2` (stereo not given), 691 nM.
To `Nc1nc(N)c2c(ccc3c2cnn3S(=O)(=O)N2CCCC2)n1` belongs 18.6 nM; to `COc1cccc(NC(=O)c2nc(N3CCN(c4ccncc4)CC3)ccc2Cl)c1`, 924 nM.
On to `COc1ccc2nccc([C@@H](O)CN3CCC(NCCOc4cc(C(F)(F)F)ccc4F)CC3)c2c1`, for which the XC50 was determined as 108 nM.
`COc1ccc2ncc(F)c(CCN3CCC(NCc4cc(Br)c5c(c4)OCCO5)CC3)c2n1` came in with an XC50 of 190 nM.
As for `COc1cc(-n2cnc3cc(-c4ccc([N+](=O)[O-])cc4)sc3c2=O)ccc1OCCN1CCCC1`, the XC50 is 775 nM.
As to `CC1(C)NC(N)=NC(=N)N1OCCCc1ccc(Cl)cc1Cl`, the XC50 stood at 3.2 nM.
`CC(C)NCc1ccc(-c2cccc(-c3nc4ccccc4[nH]3)c2)cc1`: the XC50 was 231 nM.
The molecule `C(=Cc1ccccc1)C=NN=c1cc[nH]c2ccccc12` came in with an XC50 of 725 nM.
In the case of `CC(C)C(C(=O)Nc1ccc2c(c1)OCO2)c1ccc(Cl)cc1` (stereo not given) it was 717 nM; in that of `O=C(c1ccc(-c2ccc(-c3nc4cc(F)ccc4[nH]3)cc2)cc1)N1CCCCC1CN1CCC(O)C1` (stereo not given), 368 nM; in that of `Cc1cc(N[C@@H](Cc2ccccc2)C(=O)NCCc2ccccc2)nc(NCCOc2ccccc2)n1`, 1000 nM.
To `COc1ccc(NC(=O)N2CCCN(CCCCCNC(=O)/C=C/c3ccc(Cl)cc3)CC2)cc1Cl` belongs 814 nM; to `O=C(NCC1CCC(C(=O)NCCN2CCCCC2)CC1)c1ccc(O)c(-c2ccc(Cl)c(Cl)c2)c1` (stereo not given), 1170 nM; to `O=C(/C=C/c1ccc(C(F)(F)F)cc1)NCCCCCN1CCCN(C(=O)Nc2ccc(Cl)c(Cl)c2)CC1`, 421 nM.
With `Cc1cccc2nc(-c3ccc(-c4cccc(CNCc5cccc(N)c5)c4)cc3)[nH]c12`, the XC50 is 390 nM.
`O=C(CC(=O)C(F)(F)F)c1ccccc1[N+](=O)[O-]` yielded an XC50 of 3.2 nM.
In the case of `Cc1cccc(C)c1C1CCN(CCCCNC(=O)c2cc3ccccc3[nH]2)CC1` it was 892 nM; in that of `O=C1CCCN1CCCNCc1ccc(-c2ccc(-c3nc4cc(C(F)(F)F)ccc4[nH]3)cc2)cc1`, 583 nM; in that of `Cc1nc(N)nc(N)c1OCc1cccc2ccccc12`, 72.7 nM.
Consider `Cc1[nH]c(C)c(-c2ccc(-c3ccc4c(c3)OCO4)nc2)c(=O)c1Br`, for which the XC50 turned out to be 187 nM.
`COC(=O)/C=C/c1ccc(CC(C)NCC(O)c2cccc(C(F)(F)F)c2)cc1` (stereo not given) displayed an XC50 of 731 nM.
To `COc1ccc(C=CC(=O)NC(=O)c2ccccc2OC(=O)c2ccccc2)cc1OC` belongs 910 nM.
Regarding `CC(C)C[C@H](NC(=O)c1cc2ccccc2s1)C(=O)N[C@H]1CCN(Cc2ccc(OC[C@@H]3CCCN3C)c(Cl)c2)C1`, the XC50 is 853 nM.
Consider `CCN1CCCC1CNC(=O)c1cc2c(-c3ccc(Cl)cc3)nn(C)c2s1` (stereo not given), for which the XC50 was found to be 788 nM.
Molecule `O=C(Nc1ccc(C(F)(F)F)cc1)c1cccc(S(=O)(=O)NC2CCN(CC3CCCCC3)CC2)c1` came in with an XC50 of 848 nM.
Take `O=C(/C=C/c1ccc(Cl)c(Cl)c1)NC1CCC(N2CCC(c3c[nH]c4ccccc34)CC2)CC1` (stereo not given): the XC50 worked out at 876 nM.
For `COc1ccc2ncc(F)c(CCN3CC[C@@H](CNCc4nc5c(cc4C)SCC(=O)N5)C3)c2n1`, the XC50 turned out to be 1150 nM.
For the molecule `N#Cc1cc(C(=O)c2cc(Br)ccc2O)cn(C2CCCCC2)c1=O`, the XC50 came out at 910 nM.
In the case of `N#CN1CC[C@@H](OC(=O)N[C@@H]2C[C@H]2c2ccccc2)C1`, the XC50 was 1340 nM.
Take `CN1CCc2ccc(NC(=O)Nc3cccc([N+](=O)[O-])c3)cc2C1`: the XC50 turned out to be 1100 nM.
Molecule `c1cc(-c2ccc(CN3CCN(c4ccncc4)CC3)cc2)cc(-c2nc3ccccc3[nH]2)c1` registered an XC50 of 140 nM.
Turning to `COc1ccc(Cl)cc1N1CCN(CCCNC(=O)c2ccc(-c3nc4cc(Cl)c(C)cc4[nH]3)c(F)c2)CC1`, the XC50 was 185 nM.
Molecule `Cc1cc(N(C)C2CCN(C)C2)nc(Nc2ccc(Cl)cc2)n1` (stereo not given) came in with an XC50 of 336 nM.
For the molecule `CC[C@H](C)CNC(=O)c1cccc(-c2cccc(CN3CCC(N4CCCC4)CC3)c2)n1`, the XC50 is 706 nM.
The molecule `CCNc1cc(C(=O)N[C@@H](Cc2ccccc2)[C@H](O)CNC(C)(C)CC(C)(C)C)c(F)c(N2CCCCS2(=O)=O)c1` had an XC50 of 1010 nM.
Regarding `COc1cc2nc(N3CCC(CNC(=O)c4ccc(-c5ccc(C(=O)N(C)C)cc5OCCN(C)C)cc4)CC3)nc(N)c2cc1OC`, the XC50 was determined as 842 nM.
To `Nc1ccc(-c2nc3cc(C4=N[C@H]5CCCC[C@H]5N4)ccc3o2)cc1[N+](=O)[O-]` belongs 1120 nM.
In the case of `CN1CCN(c2cc3c(cc2Cl)CCN3C(=O)Cc2ccc(Cl)c(NC(=O)Nc3cccc(C#N)c3)c2)CC1` it was 637 nM; in that of `Cc1nc(-c2ccc(-c3ccc(C(=O)Nc4ccc(C(C)C)c(OCCN(C)C)c4)cc3)c(C)c2)no1`, 870 nM; in that of `O=C(NC1CCN(c2ccnc3cc(Cl)ccc23)C1)c1ccc(F)cc1F` (stereo not given), 372 nM.
To `CCNc1cc(C(=O)N[C@@H](Cc2ccccc2)[C@H](O)CNC23CC4CC(CC(C4)C2)C3)cc(N2CCCCS2(=O)=O)c1` belongs 219 nM; to `COc1ccc(OC)c(C=NNc2nc3ccccc3[nH]2)c1`, 729 nM; to `C=Cc1sc(CNCCCNc2cc(=O)c3ccccc3[nH]2)c(C)c1Br`, 1050 nM.
`NCCNC(=O)c1ccc(-c2cnc3[nH]cc(-c4ccc(C(N)=O)cc4)c3c2)cc1` had an XC50 of 171 nM.
The molecule `O=C(NCCN1CCOCC1)c1ccc(N2CCC(Oc3ccc4ccccc4c3)CC2)nc1` registered an XC50 of 763 nM.
`COc1ccc(Nc2cc(C)nc(Nc3ccc(NC(C)=O)cc3)n2)cc1` registered an XC50 of 865 nM.
In turn, `Oc1ccc(-c2cc(-c3ccc(O)cc3)nc(-c3ccccc3)n2)cc1` registered an XC50 of 783 nM.
Regarding `O=C(Nc1ccc(C(F)(F)F)cc1)NC1CCN(c2ccnc3cc(Cl)ccc23)CC1`, the XC50 amounted to 178 nM.
To `CCOC(=O)c1ccc(NC(=O)N(Cc2ccc(-c3ccc(CN4CCNCC4)cc3)cc2)C2CCN(Cc3ccccc3)CC2)cc1` belongs 797 nM; to `COc1cc(C(=O)NC2CC(C)(C)N(C)C(C)(C)C2)ccc1-c1nc2cc(Cl)c(Cl)cc2[nH]1`, 788 nM.
In the case of `CN1CCN(CCCN(Cc2csc(-c3ccc(CNCc4ccccc4)cc3)n2)S(=O)(=O)c2ccc(F)cc2)CC1`, the XC50 amounted to 858 nM.
Molecule `CCCCCC(=O)N1CCOC(CCN2CCC(c3ccccc3)CC2)(c2ccc(Cl)c(Cl)c2)C1` (stereo not given) registered an XC50 of 1120 nM.
Molecule `COc1ccc(NC(=O)[C@H](Cc2ccccc2)Nc2cc(C)nc(NCc3ccccc3C)n2)cc1` yielded an XC50 of 794 nM.
To `COc1ccc(CNC2CCN(C)CC2)cc1-c1ccc(S(=O)(=O)NC2CCC2)cc1` belongs 882 nM; to `CN1CCN(Cc2ccc(-c3ccc4c(Nc5ccc(F)cc5Cl)ccnc4c3)o2)CC1`, 143 nM; to `COc1ccccc1CCNc1nc(C)cc(N[C@@H](Cc2ccccc2)C(=O)Nc2ccccc2)n1`, 1020 nM.
In turn, `Cc1ccc2[nH]c(-c3ccccc3)cc(=NN=Cc3cccnc3)c2c1` displayed an XC50 of 691 nM.
In the case of `Cc1cccc2nc(-c3cccc(-c4cccc(CN5CCC(CO)CC5)c4)c3)[nH]c12` it was 724 nM; in that of `COc1ccc2nccc(N3C[C@H]4C[C@@H]3CN4CCNCc3ccc4c(n3)NC(=O)CS4)c2n1`, 973 nM; in that of `Cc1ccc(NC(=O)N2CCCN(CCCCCNC(=O)/C=C/c3ccc(Cl)c(Cl)c3)CC2)cc1C`, 773 nM.
To `CC(c1cccc(Nc2nccc(-c3c(-c4cccc(NC(=O)c5c(F)cccc5F)c4)nn4ncccc34)n2)c1)S(C)(=O)=O` (stereo not given) belongs 45.6 nM.
Consider `NC(=O)c1cccc(C(=O)Nc2ccc(-c3cccc(-c4nc5cc(C(F)(F)F)ccc5[nH]4)c3)cc2)c1`, for which the XC50 stood at 350 nM.
`O=S(=O)(NC1CCN(c2ccnc3cc(Cl)ccc23)C1)c1ccc(F)cc1` (stereo not given) showed an XC50 of 475 nM.
Molecule `CCOC(=O)c1ccc(-c2cnc(N)c(-c3nc4cccc(C)c4[nH]3)c2)cc1` returned an XC50 of 281 nM.
In the case of `COc1cc(Cc2cnc(N)nc2N)cc(OCCCCCC(N)=O)c1OC`, the XC50 was 1190 nM.
In the case of `O=S(=O)(Nc1cccc(CCN2CCC(N3CCCCC3)CC2)c1)c1cccc2cccnc12` it was 851 nM.
For `CC(C)c1cccc(OCC2CCN(c3ccc(C(=O)Nc4ccccc4)cn3)CC2)c1`, the XC50 was 701 nM.
In the case of `COc1cc(Cc2cnc(N)nc2N)cc(OCCCCNS(=O)(=O)C(F)(F)F)c1OC`, the XC50 was found to be 1040 nM.
Take `COc1ccccc1CNC(=O)CCn1c(=O)[nH]c2ccsc2c1=O`: the XC50 came to 1040 nM.
As to `O=C(Nc1cccc(C(F)(F)F)c1)NC1CCN(c2ccnc3cc(Cl)ccc23)C1` (stereo not given), the XC50 came out at 120 nM.
To `CN(CCc1ccccn1)Cc1ccc(-c2ccc(-c3nc4ccccc4[nH]3)s2)cc1` belongs 588 nM; to `CCc1cc2c(cc1CC)CC(NC[C@@H](O)c1ccc(O)c3[nH]c(=O)ccc13)C2`, 1120 nM.
The molecule `CC(C)(C)C1CCC(CC2=C(C(=O)O)c3ccccc3C2=O)CC1` (stereo not given) returned an XC50 of 1100 nM.
`O=C(Nc1cccc(-c2ccc(-c3nc4cc(F)ccc4[nH]3)s2)c1)c1cccnc1` displayed an XC50 of 608 nM.
Regarding `CCCN1CCC(c2c[nH]c3ccc(NC(=O)Nc4cccc(Cl)c4Cl)cc23)CC1`, the XC50 stood at 815 nM.
`O=C1c2ccccc2C(=O)N1c1ccc(S(=O)(=O)N2CCOCC2)cc1`: the XC50 is 1260 nM.
